Columns and labels:
[1] = biological target: T1, NMDAR2A (Homo sapiens, UniProt Q12879); assay: NMDAR agonist assay, [3H]MK-801 binding, NMDAR2A expressing HEK cell membranes; assay type: biochemical; details: 50 μM glutamate
T1 construct: expressed in transfected cells; host or cells: HEK cells (membrane extract)
Method: (§1) Assays were conducted as described by Moskal et al., “GLYX-13: a monoclonal antibody-derived peptide that acts as an N-methyl-D-aspartate receptor modulator,” Neuropharmacology, 49, 1077-87, 2005. These studies were designed to determine if the test compounds act to facilitate NMDAR activation in NMDAR2A, NMDAR2B, NMDAR2C or NMDAR2D expressing HEK cell membranes as measured by increases in [3H]MK-801 binding.
(§2) In the assay, 300 μg of NMDAR expressing HEK cell membrane extract protein was preincubated for 15 minutes at 25° C. in the presence of saturating concentrations of glutamate (50 μM) and varying concentrations of test compound (1×10^−15M-1×10^−7M), or 1 mM glycine. Following the addition of 0.3 μCi of [3H]MK-801 (22.5 Ci/mmol), reactions were again incubated for 15 minutes at 25° C. (nonequilibrium conditions). Bound and free [3H]MK-801 were separated via rapid filtration using a Brandel apparatus.
(§3) In analyzing the data, the DPM (disintegrations per minute) of [3H]MK-801 remaining on the filter were measured for each concentration of test compound or for 1 mM glycine. The DPM values for each concentration of a ligand (N=2) were averaged. The baseline value was determined from the best fit curve of the DPM values modeled using the GraphPad program and the log(agonist) vs. response(three parameters) algorithm was then subtracted from all points in the dataset. The % maximal [3H]MK-801 binding was then calculated relative to that of 1 mM glycine: all baseline subtracted DPM values were divided by the average value for 1 mM glycine. The EC50 and % maximal activity were then obtained from the best fit curve of the % maximal [3H]MK-801 binding data modelled using the GraphPad program and the log(agonist) vs. response(three parameters) algorithm.
(§4) The tables below summarize the results for the wild type NMDAR agonists NMDAR2A, NMDAR2B, NMDAR2C, and NMDAR2D, and whether the compound is not an agonist (−), is an agonist (+), or is a strong agonist (++), where column A is based on the % maximal [3H]MK-801 binding relative to 1 mM glycine (−=0; <100%=+; and >100%=++); and column B is based on log EC50 values (0=−; >1×10^−9 M (e.g., −8)=+; and <1×10^−9 M (e.g., −10)++).

[2] = Oral pharmacokinetics in rats (plasma, brain, CSF); assay type: in vivo, Sprague Dawley rats; details: rat, oral gavage, 10 mg/kg
Method: In another experiment, Sprague Dawley rats were dosed per os (oral gavage) using a normal saline formulation containing 10 mg/kg of the compounds identified in the table below. Plasma, brain, and CSF samples were analyzed at various time points over a 24 hour period. The table below summarizes the results of the oral pharmacokinetics, where the first three values (Tmax, Cmax and AUClast) are plasma values.

[3] = biological target: T2, NMDAR2D (Homo sapiens, UniProt O15399+Q05586); assay: NMDAR agonist assay, [3H]MK-801 binding, NMDAR2D expressing HEK cell membranes; assay type: biochemical; details: 50 μM glutamate, read-out: NMDAR2D B: log EC50 (converted)
T2 construct: expressed in transfected cells; host or cells: HEK cells (membrane extract)
Method: as §1, §2, §3, §4

[4] = biological target: T3, NMDAR2D (Homo sapiens, UniProt O15399); assay: as above; assay type: biochemical; details: 50 μM glutamate
T3 construct: expressed in transfected cells; host or cells: HEK cells (membrane extract)
Method: as §1, §2, §3, §4

[5] = Plasma stability (Human); assay type: in vitro ADME; details: after 60 minutes
Method: (§5) Plasma stability of disclosed compounds was investigated. The following table indicates the percent of compound remaining after 60 minutes.

[6] = tested on: Sprague Dawley rats; assay: Porsolt forced swim test; assay type: in vivo
Method: A non-clinical in vivo pharmacology study (Porsolt assay) was performed to measure antidepressant-like effects. The study allowed for the evaluation of the effects of each compound on the Porsolt forced swim test as assessed by the rats' response (reduced floating time) during a 5-minute swimming test.
Male 2-3 month old Sprague Dawley rats were used (Harlan, Indianapolis, Ind.). Rats were housed in Lucite cages with aspen wood chip bedding, maintained on a 12:12 light:dark cycle (lights on at 5 AM), and given ad libitum access to Purina lab chow (USA) and tap water throughout the study.
The Porsolt forced swim test adapted for use in rats was performed as described by Burgdorf et al., (The long-lasting antidepressant effects of rapastinel (GLYX-13) are associated with a metaplasticity process in the medial prefrontal cortex and hippocampus. Neuroscience 308:202-211, 2015). Animals were placed in a 46 cm tall×20 cm in diameter clear glass tube filled to 30 cm with tap water (23±1° C.) for 15 min on the first day (habituation) and 5 min on the subsequent test day. Animals were tested 1 h or 1 week post-dosing with the test compounds or vehicle control (0.5% sodium carboxymethyl cellulose in 0.9% sterile saline). Animals received a 15 min habituation session 1 day before the first 5 min test. Water was changed after every other animal. Animals were videotaped, and floating time as defined as the minimal amount of effort required to keep the animals head above water was scored offline by a blinded experimenter with high inter-rater reliability (Pearson's r>0.9).

[7] = Plasma stability (Rat); assay type: in vitro ADME; details: after 60 minutes
Method: as §5

[8] = Microsomal stability (Human); assay type: in vitro ADME; details: human microsomes, after 60 minutes
Method: Microsomal stability of disclosed compounds was investigated. The following table indicates the percent of compound remaining after 60 minutes.

[9] = biological target: T4, NMDAR2C (Homo sapiens, UniProt Q14957); assay: NMDAR agonist assay, [3H]MK-801 binding, NMDAR2C expressing HEK cell membranes; assay type: biochemical; details: 50 μM glutamate
T4 construct: expressed in transfected cells; host or cells: HEK cells (membrane extract)
T4 sequence (Q14957 20-1233, species assumed, other chains not shown): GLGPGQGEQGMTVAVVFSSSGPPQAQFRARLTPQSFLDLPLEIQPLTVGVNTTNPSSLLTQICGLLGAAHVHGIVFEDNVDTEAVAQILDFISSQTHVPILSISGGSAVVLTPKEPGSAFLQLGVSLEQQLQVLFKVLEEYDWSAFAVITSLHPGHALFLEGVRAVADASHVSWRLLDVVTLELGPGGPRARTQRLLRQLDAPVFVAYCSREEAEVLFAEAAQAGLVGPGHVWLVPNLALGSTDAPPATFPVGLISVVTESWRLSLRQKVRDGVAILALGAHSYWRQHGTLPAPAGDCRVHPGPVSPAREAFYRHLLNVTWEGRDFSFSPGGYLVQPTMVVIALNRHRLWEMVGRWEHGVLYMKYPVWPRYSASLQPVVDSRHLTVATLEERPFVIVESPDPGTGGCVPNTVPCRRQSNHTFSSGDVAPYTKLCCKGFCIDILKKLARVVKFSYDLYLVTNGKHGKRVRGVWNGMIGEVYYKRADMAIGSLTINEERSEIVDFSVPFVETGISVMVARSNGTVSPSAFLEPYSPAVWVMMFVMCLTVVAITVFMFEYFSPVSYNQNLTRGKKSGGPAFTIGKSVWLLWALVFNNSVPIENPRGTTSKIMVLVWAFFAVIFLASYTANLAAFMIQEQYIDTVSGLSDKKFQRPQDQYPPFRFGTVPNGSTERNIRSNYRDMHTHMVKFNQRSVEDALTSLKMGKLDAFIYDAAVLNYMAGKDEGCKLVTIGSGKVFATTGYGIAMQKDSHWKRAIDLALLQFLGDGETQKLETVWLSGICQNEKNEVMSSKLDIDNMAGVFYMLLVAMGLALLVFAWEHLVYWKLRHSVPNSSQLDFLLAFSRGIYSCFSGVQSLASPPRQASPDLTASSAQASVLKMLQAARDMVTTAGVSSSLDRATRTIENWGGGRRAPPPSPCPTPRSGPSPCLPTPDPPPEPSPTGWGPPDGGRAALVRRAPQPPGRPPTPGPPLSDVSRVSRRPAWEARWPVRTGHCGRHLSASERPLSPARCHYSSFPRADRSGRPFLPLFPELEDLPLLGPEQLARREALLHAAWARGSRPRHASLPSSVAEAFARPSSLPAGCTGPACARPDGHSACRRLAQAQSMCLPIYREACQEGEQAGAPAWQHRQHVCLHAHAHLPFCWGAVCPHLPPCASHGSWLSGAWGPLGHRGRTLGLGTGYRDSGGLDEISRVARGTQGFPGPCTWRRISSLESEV
Method: as §1
as §2, with “Bound and free [3H]MK-801 were separated via rapid filtration using a Brandel apparatus.” left out
as §3, with “The DPM values for each concentration of a ligand (N=2) were averaged.” left out, “The EC50 and % maximal activity were then obtained from the best fit curve of the % maximal [3H]MK-801 binding data modelled using the GraphPad program and the log(agonist) vs. response(three parameters) algorithm.” left out

[10] = biological target: T5, NMDAR2B (Homo sapiens, UniProt Q13224); assay: NMDAR agonist assay, [3H]MK-801 binding, NMDAR2B expressing HEK cell membranes; assay type: biochemical; details: 50 μM glutamate
T5 construct: expressed in transfected cells; host or cells: HEK cells (membrane extract)
T5 sequence (Q13224 27-1484, species assumed, other chains not shown): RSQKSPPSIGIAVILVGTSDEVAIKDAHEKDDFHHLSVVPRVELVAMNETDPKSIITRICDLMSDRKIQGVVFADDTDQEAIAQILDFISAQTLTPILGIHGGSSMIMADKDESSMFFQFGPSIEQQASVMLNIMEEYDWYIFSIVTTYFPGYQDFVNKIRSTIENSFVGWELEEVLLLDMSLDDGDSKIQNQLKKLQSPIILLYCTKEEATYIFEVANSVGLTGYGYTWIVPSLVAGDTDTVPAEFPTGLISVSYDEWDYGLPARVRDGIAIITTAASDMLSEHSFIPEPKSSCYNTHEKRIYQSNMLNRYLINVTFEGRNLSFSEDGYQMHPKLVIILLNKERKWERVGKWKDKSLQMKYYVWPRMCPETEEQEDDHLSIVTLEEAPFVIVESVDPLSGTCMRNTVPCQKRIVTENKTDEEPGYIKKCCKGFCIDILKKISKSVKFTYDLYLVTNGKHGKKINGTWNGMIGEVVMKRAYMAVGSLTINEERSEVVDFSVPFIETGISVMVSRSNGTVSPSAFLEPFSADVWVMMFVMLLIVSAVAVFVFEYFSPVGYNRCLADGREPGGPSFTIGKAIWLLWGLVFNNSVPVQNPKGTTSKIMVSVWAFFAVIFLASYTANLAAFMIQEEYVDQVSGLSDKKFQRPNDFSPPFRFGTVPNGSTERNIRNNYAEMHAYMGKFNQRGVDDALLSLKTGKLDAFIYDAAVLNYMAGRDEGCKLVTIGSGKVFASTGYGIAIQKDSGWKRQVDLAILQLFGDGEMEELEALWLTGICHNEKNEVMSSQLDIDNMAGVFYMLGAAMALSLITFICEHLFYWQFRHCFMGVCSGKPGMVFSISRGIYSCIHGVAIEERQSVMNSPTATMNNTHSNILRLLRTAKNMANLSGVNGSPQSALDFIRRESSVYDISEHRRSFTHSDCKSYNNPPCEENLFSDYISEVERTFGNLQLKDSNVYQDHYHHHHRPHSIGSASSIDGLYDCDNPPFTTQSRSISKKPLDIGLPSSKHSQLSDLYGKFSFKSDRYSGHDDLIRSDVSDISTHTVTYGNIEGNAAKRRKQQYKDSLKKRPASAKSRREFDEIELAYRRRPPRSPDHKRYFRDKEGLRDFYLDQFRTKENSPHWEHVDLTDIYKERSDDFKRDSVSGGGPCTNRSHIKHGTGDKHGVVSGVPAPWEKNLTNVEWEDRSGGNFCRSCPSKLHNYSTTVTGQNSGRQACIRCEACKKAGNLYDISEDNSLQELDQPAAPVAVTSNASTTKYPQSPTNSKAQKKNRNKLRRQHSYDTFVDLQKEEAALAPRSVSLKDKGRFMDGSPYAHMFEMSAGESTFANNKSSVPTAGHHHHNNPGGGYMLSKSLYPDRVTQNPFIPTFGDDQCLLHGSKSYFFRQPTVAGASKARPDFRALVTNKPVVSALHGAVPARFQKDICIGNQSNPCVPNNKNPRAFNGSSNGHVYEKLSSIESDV
Method: as §1, §2, §3, §4

T1 sequence (Q12879 23-1464, species assumed, other chains not shown): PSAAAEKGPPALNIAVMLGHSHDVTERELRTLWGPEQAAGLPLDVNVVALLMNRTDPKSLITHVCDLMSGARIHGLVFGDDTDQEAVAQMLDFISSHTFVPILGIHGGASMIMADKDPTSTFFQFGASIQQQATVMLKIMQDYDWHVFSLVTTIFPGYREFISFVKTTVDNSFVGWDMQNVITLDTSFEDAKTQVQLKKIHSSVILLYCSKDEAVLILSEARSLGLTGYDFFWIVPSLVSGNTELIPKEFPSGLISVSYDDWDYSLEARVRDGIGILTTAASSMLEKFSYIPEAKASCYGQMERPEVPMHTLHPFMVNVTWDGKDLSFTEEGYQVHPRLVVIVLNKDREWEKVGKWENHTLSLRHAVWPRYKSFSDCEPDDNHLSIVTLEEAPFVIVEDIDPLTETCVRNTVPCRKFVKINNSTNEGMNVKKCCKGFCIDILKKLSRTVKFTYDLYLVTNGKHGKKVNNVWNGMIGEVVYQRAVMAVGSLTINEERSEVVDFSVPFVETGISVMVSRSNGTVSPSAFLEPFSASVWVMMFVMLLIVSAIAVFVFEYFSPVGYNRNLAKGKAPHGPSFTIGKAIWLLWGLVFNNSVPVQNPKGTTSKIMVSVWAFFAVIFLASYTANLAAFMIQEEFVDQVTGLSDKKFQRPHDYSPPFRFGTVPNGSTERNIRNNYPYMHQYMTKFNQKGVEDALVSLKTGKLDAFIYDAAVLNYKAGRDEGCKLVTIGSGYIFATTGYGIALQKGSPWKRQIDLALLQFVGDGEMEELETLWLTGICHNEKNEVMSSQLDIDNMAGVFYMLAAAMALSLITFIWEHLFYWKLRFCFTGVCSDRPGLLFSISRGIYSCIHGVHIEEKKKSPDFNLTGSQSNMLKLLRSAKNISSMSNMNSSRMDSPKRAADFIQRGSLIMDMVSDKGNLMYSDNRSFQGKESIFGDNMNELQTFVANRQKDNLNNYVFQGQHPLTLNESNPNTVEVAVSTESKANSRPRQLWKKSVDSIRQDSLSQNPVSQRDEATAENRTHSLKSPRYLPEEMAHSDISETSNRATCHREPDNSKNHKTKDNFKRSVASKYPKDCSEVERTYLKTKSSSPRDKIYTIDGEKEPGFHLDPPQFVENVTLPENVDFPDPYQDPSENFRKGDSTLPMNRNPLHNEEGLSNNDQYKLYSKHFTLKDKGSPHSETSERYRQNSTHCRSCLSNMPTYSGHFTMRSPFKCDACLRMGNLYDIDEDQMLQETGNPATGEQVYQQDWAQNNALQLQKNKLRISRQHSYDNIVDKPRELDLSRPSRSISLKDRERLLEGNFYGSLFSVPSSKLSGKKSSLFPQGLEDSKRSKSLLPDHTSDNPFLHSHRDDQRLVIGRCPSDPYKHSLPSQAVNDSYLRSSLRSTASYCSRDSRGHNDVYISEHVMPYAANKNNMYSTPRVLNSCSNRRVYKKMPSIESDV

CC(C)C(=O)N1CCC2(CCCNC2=O)CC1 [Compound AD, 9-isobutyryl-2,9-diazaspiro[5.5]undecan-1-one]
NMDAR2A A: % maximal [3H]MK-801 binding relative to 1 mM glycine [1]: + (<100%=+) | EC50 ([1]; read-out: NMDAR2A B: log EC50 (converted)): < 1 nM | bioavailability ([2]; Sprague Dawley, plasma): 70% | AUC(0-t) ([2]; Sprague Dawley, plasma): 18400 ng·h/mL | Cmax ([2]; Sprague Dawley, plasma): 8540 ng/mL | Tmax ([2]; Sprague Dawley, plasma): 19.8 min | CSF Cmax ([2]; CSF): 4697 ng/mL | Brain Cmax ([2]; brain): 4833 ng/mL | EC50 [3]: < 1 nM | NMDAR2D A: % maximal [3H]MK-801 binding relative to 1 mM glycine [4]: + (<100%=+) | Plasma (Human): percent of compound remaining [5]: 98% | % reduction in float time ([6]; 0.00001 mg/kg, 1 wk post-dose): 1% | Significance vs. vehicle ([6]; 0.00001 mg/kg, 1 wk post-dose): No | % reduction in float time ([6]; 0.00001 mg/kg, 1 h post-dose): 25% | Significance vs. vehicle ([6]; 0.00001 mg/kg, 1 h post-dose): No | % reduction in float time ([6]; 0.001 mg/kg, 1 wk post-dose): 41% | Significance vs. vehicle ([6]; 0.001 mg/kg, 1 wk post-dose): No | % reduction in float time ([6]; 0.001 mg/kg, 1 h post-dose): 47% | Significance vs. vehicle ([6]; 0.001 mg/kg, 1 h post-dose): Yes | % reduction in float time ([6]; 0.1 mg/kg, 1 wk post-dose): 39% | Significance vs. vehicle ([6]; 0.1 mg/kg, 1 wk post-dose): No | % reduction in float time ([6]; 0.1 mg/kg, 1 h post-dose): 53% | Significance vs. vehicle ([6]; 0.1 mg/kg, 1 h post-dose): Yes | % reduction in float time ([6]; 10.0 mg/kg, 1 wk post-dose): 37% | Significance vs. vehicle ([6]; 10.0 mg/kg, 1 wk post-dose): No | % reduction in float time ([6]; 10.0 mg/kg, 1 h post-dose): 39% | Significance vs. vehicle ([6]; 10.0 mg/kg, 1 h post-dose): Yes | Plasma (Rat): percent of compound remaining [7]: 95% | Microsomal (Human): percent of compound remaining [8]: 100% | NMDAR2C A: % maximal [3H]MK-801 binding relative to 1 mM glycine [9]: + (<100%=+) | EC50 ([9]; read-out: NMDAR2C B: log EC50 (converted)): < 1 nM | NMDAR2B A: % maximal [3H]MK-801 binding relative to 1 mM glycine [10]: + (<100%=+) | EC50 ([10]; read-out: NMDAR2B B: log EC50 (converted)): < 1 nM

— patent publication US11578072B2, “Spiro-lactam NMDA receptor modulators and uses thereof” (Aptinyx Inc., priority 2018, dated 2023)
